Assay results reported in patent US6063814A, “Phorbol esters as anti-neoplastic and white blood cell elevating agents” (priority 1997, dated 2000).

Tested on: HL-60 cells
Test: TPA + low doses of Ara-C, HL-60 differentiation
Type: cell-based, human
Conditions: Ara-C alone, low dose 100 ng/ml
Text: (2) TPA+Low Doses of Ara-C:

## Nc1ccn([C@@H]2O[C@H](CO)[C@@H](O)[C@@H]2O)c(=O)n1 [Ara-C, cytarabine, reference compound]
  HL-60 cell differentiation: could induce cell differentiation
